Experimental data reported in US7166617B2, “Cyclic amide derivatives” (Mitsubishi Pharma Corporation, priority 2000, dated 2007).
Structures can show the parent of a compound that is named as a salt.

Biological target: T1, sigma 2 receptor (Rattus norvegicus, UniProt Q5U3Y7)
T1 construct: A crude P2 membrane fraction was prepared from livers of male rats (Sprague-Dawley rats); from tissue; host or cells: rat liver (male Sprague-Dawley), crude P2 membrane fraction
T1 sequence (Q5U3Y7 1-176): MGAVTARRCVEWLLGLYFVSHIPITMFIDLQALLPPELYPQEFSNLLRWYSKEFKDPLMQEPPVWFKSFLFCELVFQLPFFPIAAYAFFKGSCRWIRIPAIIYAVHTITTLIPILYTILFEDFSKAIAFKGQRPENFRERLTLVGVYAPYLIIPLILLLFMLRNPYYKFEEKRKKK
Assay: Sigma 2-selective receptor binding inhibition test ([3H]-DTG, rat liver P2 membrane fraction)
Conditions: [3H]-DTG 1 nM, 500 nM pentazocine; for inhibition at 0.01 µM: test compound 10 nM, rat liver P2 fraction, read-out: Inhibitory rate against sigma 2 (%, 10 nM); for Ki: P2 fraction of livers of male Sprague-Dawley rats, 25° C., 2 hours
Procedure: Sigma Binding Site-Binding Inhibition Test
A crude P2 membrane fraction was prepared from livers of male rats (Sprague-Dawley rats) according to a method described in the literature (X. He, et al., J. Med. Chem., 36, pp. 566–571, 1993). In the presence of 500 nM pentazocine and a control compound at various concentrations (haloperidol, 10^−10 to 10^−6 M) or a test ligand at various concentrations (10^−10 to 10^−5 M) together with a radioactive ligand, the P2 fraction (0.4 ml) was incubated in 50 mM Tris-HCl (pH 7.4, final volume: 0.5 ml) at 25° C. for 2 hours. The reaction mixture was rapidly filtered on a Brandel cell harvester using Whatman GF/B filter paper, which was immersed beforehand in 0.5% polyethyleneimine for 1 hour, to stop the reaction. The filter paper was washed 4 times with the ice cooled incubation buffer. The non-specific results were evaluated by using 1 μM haloperidol, and the scintillation analysis and the curve analysis were performed as described above.

Structure (SMILES)	inhibition at 0.01 µM	Ki
O=C1c2ccccc2CN1CC1CCN(CCOc2ccccc2)CC1 [Example 114, 2-[[1-(2-Phenoxyethyl)piperidin-4-yl]methyl]isoindolin-1-one fumarate]	51%	
O=C1c2ccccc2CN1CC1CCN(CCOc2ccccc2F)CC1 [Example 117, 2-[[1-[2-(2-Fluorophenoxy)ethyl]piperidin-4-yl]methyl]isoindolin-1-one fumarate]	52%	
O=C1c2ccccc2CN1CC1CCN(CCOc2cccc(F)c2)CC1 [Example 118, 2-[[1-[2-(3-Fluorophenoxy)ethyl]piperidin-4-yl]methyl]isoindolin-1-one fumarate]	50%	
O=C(CN1CCC(CN2CCc3ccccc3C2=O)CC1)c1ccc(F)cc1 [Example 137, 2-[[1-[2-(4-Fluorophenyl)-2-oxoethyl]piperidin-4-yl]methyl]-3,4-dihydroisoquinolin-1(2H)-one hydrochloride]		7.8 nM
O=C(CN1CCC(CN2Cc3cc(F)ccc3C2=O)CC1)c1ccc(F)cc1 [Example 154, 5-Fluoro-2-[[1-[2-(4-fluorophenyl)-2-oxoethyl]piperidin-4-yl]methyl]isoindolin-1-one hydrochloride]		16 nM
O=C(CN1CCC(CN2Cc3ccoc3C2=O)CC1)c1ccc(F)cc1 [Example 158, 5-[[1-[2-(4-Fluorophenyl)-2-oxoethyl]piperidin-4-yl]methyl]-4,5-dihydro-6H-furo[2,3-c]pyrrol-6-one fumarate]	57%	
COc1ccc2c(c1)CN(CC1CCN(CCc3ccc(F)cc3)CC1)C2=O [Example 159, 5-Methoxy-2-[1-[2-(4-fluorophenyl)ethyl]piperidin-4-ylmethyl]isoindolin-1-one fumarate]		25 nM
O=C1c2ccc(Br)cc2CN1CC1CCN(CCc2ccc(F)cc2)CC1 [Example 160, 5-Bromo-2-[1-[2-(4-fluorophenyl)ethyl]piperidin-4-ylmethyl]isoindolin-1-one fumarate]		10 nM
COc1ccccc1CCN1CCC(CN2Cc3cc(Br)ccc3C2=O)CC1 [Example 167, 2-[1-[2-(2-Methoxyphenyl)ethyl]piperidin-4-ylmethyl]-5-bromoisoindolin-1-one hydrochloride]	62%	

Other lines, results leading:

inhibition at 0.01 µM	Ki	Structure (SMILES)
52%		COc1ccccc1CCN1CCC(CN2Cc3cc(C#N)ccc3C2=O)CC1 [Example 170, 5-Cyano-2-[1-[2-(2-methoxyphenyl)ethyl]piperidin-4-ylmethyl]isoindolin-1-one fumarate]
55%		O=C1c2ccc(Br)cc2CN1CC1CCN(CCOc2ccc(F)cc2)CC1 [Example 177, 2-[1-[2-(4-Fluorophenyloxy)ethyl]piperidin-4-ylmethyl]-5-bromoisoindolin-1-one hydrochloride]
50%		O=C1c2ccc(Cl)cc2CN1CC1CCN(CCOc2ccc(F)cc2)CC1 [Example 178, 5-Chloro-2-[1-[2-(4-fluorophenoxy)ethyl]piperidin-4-ylmethyl]isoindolin-1-one fumarate]
70%		O=C1c2cccc(F)c2CN1CC1CCN(CCOc2ccc(F)cc2)CC1 [Example 181, 4-Fluoro-2-[1-[2-(4-fluorophenoxy)ethyl]piperidin-4-ylmethyl]isoindolin-1-one fumarate]
